Entries after “also recorded” stand apart in the source; their conditions may differ.
Legend:
human neutrophils = test: Human neutrophil migration (Transwell); assay type: cell-based
Method: Human peripheral blood neutrophils were isolated from healthy volunteer buffy coats. Initially, the majority of red blood cells were sedimented using 2% w/v dextran sulfate in a 0.9% NaCl solution for 15 min. Next, the upper phase was centrifuged for 10 min at 200g and the supernatant was discarded. The pellet was resuspended in 0.9% NaCl solution, and neutrophils were separated from here using Lymphoprep (STEMCELL Technologies #07851) and density-gradient centrifugation (400g for 30 min). Then, the remaining red blood cells were subjected to hypotonic lysis by addition of 10 mL of sterile water followed by addition of 10 mL of 1.8% NaCl solution. Cell count and viability were determined using trypan blue and a Countess cell counter. […]
Freshly isolated human peripheral neutrophils were used in migration assays using the Boyden style Corning HTS Transwell 96 well system with 3 μm pores (Corning #3385). […] Finally, the number of cells that had migrated to the bottom chamber was assessed using the ATPLite Luminescence assay system (PerkinElmer #6016943) according to the manufacturer’s instructions. Luminescence was measured on an LUMIstar Omega microplate reader (PerkinElmer). Experiments were performed in triplicate and analyzed using GraphPad Prism (version 9). Fold response was calculated as the relative migration of samples compared to the vehicle control.

[1] = Pharmacokinetic study in mice; assay type: in vivo; conditions: male, BALB/cAnC, mouse, plasma
Method: The study was performed by Bienta (www.bienta.net). Study design, animal selection, handling, and treatment were all in accordance with the Enamine PK study protocols and Institutional Animal Care and Use Guidelines. Animal treatment and plasma sample preparation were conducted by the Animal Laboratory personnel at Enamine/Bienta. Male BALB/cAnC mice (10–11 weeks old, body weight: 16.0–21.7 g and average body weight across all groups: 19.1 g, SD = 1.2 g) were used in this study. The animals were randomly assigned to the treatment groups before the pharmacokinetic study; all animals were fasted for 4 h before dosing. Intravenous (IV) and peroral (PO) routes of administration were done according to the following; eight time points for each route (3, 7, 15, 30, 60, 120, 240, and 480 min) for the IV route and (5, 10, 15, 30, 60, 120, 240, and 480 min) for the PO route were set for this pharmacokinetic study. Each of the time point treatment group included three animals. There was also one control animal. Compound 16l in the vehicle (DMSO–Cremophor EL–water w/5% mannitol, 1:1:8) was dosed at 10 mg/kg po and 5 mg/kg iv. Dosing volumes of compounds or vehicle were 5 mL/kg. Mice were injected iv with 2,2,2-tribromoethanol at a dose of 150 mg/kg prior to drawing the blood. Blood collection was performed from the orbital sinus in microtainers containing K3EDTA. Animals were sacrificed by cervical dislocation after the blood sample collection. Blood samples were centrifuged for 10 min at 3000 rpm. Before analysis, plasma samples (40 μL) were added 200 μL of a solution with transilast as the internal standard (200 ng/mL in water–methanol mixture 1:9, v/v). After mixing by pipetting and centrifuging for 4 min at 6000 rpm, 0.5 μL of each supernatant was analyzed by HPLC-MS/MS on an API 3000 PE instrument.

COc1cccc(CC(=O)N[C@@H](Cc2ccc(C(F)(F)F)cc2)Cc2nnn[nH]2)c1 [Compound 16l, (S)-N-(1-(1H-Tetrazol-5-yl)-3-(4-(trifluoromethyl)phenyl)propan-2-yl)-2-(3-methoxyphenyl)acetamide]
effect on neutrophil migration induced by fMLP (human neutrophils; fMLP-induced): did not exhibit any effect
inhibition of propionate-induced neutrophil migration (human neutrophils; propionate (C3) 1 mM): completely inhibit; also recorded: fully inhibit migration; also recorded: complete inhibition
AUC(0-inf) ([1]; iv admin 5 mg/kg): 7350 ng·h/mL
Vd ([1]; iv admin 5 mg/kg): 0.4 L/kg
half-life ([1]; iv admin 5 mg/kg): 24 min
clearance ([1]; iv admin 5 mg/kg, read-out: CLtotal): 11 mL/min/kg
bioavailability ([1]; po 10 mg/kg vs iv 5 mg/kg): 44%
AUC(0-inf) ([1]; po admin 10 mg/kg): 6480 ng·h/mL
Cmax ([1]; po admin 10 mg/kg): 6240 ng/mL
Tmax ([1]; po admin 10 mg/kg): 30 min
